Results on three compounds are retold here after US20250092002A1, “FLUORINATED CATIONIC LIPIDS FOR USE IN LIPID NANOPARTICLES” (Acuitas Therapeutics, Inc., priority 2021, published 2025).

A short description of series [1]: Determination of pKa of formulated lipids (TNS fluorescence assay in lipid nanoparticles). Conditions: cationic lipid formulated in lipid nanoparticles (cationic lipid/DSPC/cholesterol/PEG-lipid 47.5/10/40.7/1.8 mol %). The series is classed as physicochemical. The protocol:
As described elsewhere, the pKa of formulated cationic lipids is correlated with the effectiveness of LNPs for delivery of nucleic acids (see Jayaraman et al, Angewandte Chemie, International Edition (2012), 51(34), 8529-8533; Semple et al, Nature Biotechnology 28, 172-176 (2010)). The preferred range of pKa is ˜5 to ˜7. The pKa of each cationic lipid was determined in lipid nanoparticles using an assay based on fluorescence of 2-(p-toluidino)-6-napthalene sulfonic acid (TNS). Lipid nanoparticles comprising cationic lipid/DSPC/cholesterol/PEG-lipid (47.5/10/40.7/1.8 mol %) in PBS at a concentration of 0.4 mM total lipid were prepared using the in-line process as described in Example 1. TNS was prepared as a 100 μM stock solution in distilled water. Vesicles were diluted to 24 μM lipid in 2 mL of buffered solutions containing, 10 mM HEPES, 10 mM MES, 10 mM ammonium acetate, 130 mM NaCl, where the pH ranged from 2.5 to 11. An aliquot of the TNS solution was added to give a final concentration of 1 μM and following vortex mixing fluorescence intensity was measured at room temperature in a SLM Aminco Series 2 Luminescence Spectrophotometer using excitation and emission wavelengths of 321 nm and 445 nm. A sigmoidal best fit analysis was applied to the fluorescence data and the pKa was measured as the pH giving rise to half-maximal fluorescence intensity.

Series [2] deals with luciferase expression in the liver. Nature of the series: In vivo luciferase mRNA expression rodent model (liver luciferase after tail vein injection of mRNA-LNP). Also noted: species or system mice. Conditions: tail vein injection, liver 4 hours after administration; for Liver Luc (ng luc/g liver), determined at 0.3 mg/kg: 0.3 mg/kg (footnote *). How it is done:
Lipid nanoparticles were prepared and tested according to the general procedures described in PCT Pub. Nos. WO 2015/199952 and WO 2017/004143, the full disclosures of which are incorporated herein by reference. Briefly, cationic lipid, DSPC, cholesterol and PEG-lipid were solubilized in ethanol at a molar ratio of about 50:10:38.5:1.5 or about 47.5:10:40.7:1.8. Lipid nanoparticles (LNP) were prepared at a total lipid to mRNA weight ratio of approximately 10:1 to 40:1. The mRNA is diluted to 0.2 mg/mL in 10 to 50 mM citrate or acetate buffer, pH 4. Syringe pumps were used to mix the ethanolic lipid solution with the mRNA aqueous solution at a ratio of about 1:5 to 1:3 (vol/vol) with total flow rates above 15 mL/min. The ethanol was then removed and the external buffer replaced with PBS by dialysis. Finally, the lipid nanoparticles were filtered through a 0.2 µm pore sterile filter. Lipid nanoparticle particle size was approximately 55-95 nm diameter, and in some instances approximately 70-90 nm diameter as determined by quasi-elastic light scattering using a Malvern Zetasizer Nano ZS (Malvern, UK).
Studies were performed in 6-8 week old female C57BL/6 mice (Charles River) or 8-10 week old CD-1 (Harlan) mice (Charles River) according to guidelines established by an institutional animal care committee (ACC) and the Canadian Council on Animal Care (CCAC). Varying doses of mRNA-lipid nanoparticle were systemically administered by tail vein injection and animals euthanized at a specific time point (e.g., 4 hours) post-administration. Liver and spleen were collected in pre-weighed tubes, weights determined, immediately snap frozen in liquid nitrogen and stored at −80° C. until processing for analysis.
For liver, approximately 50 mg was dissected for analyses in a 2 mL FastPrep tubes (MP Biomedicals, Solon OH). ¼″ ceramic sphere (MP Biomedicals) is added to each tube and 500 μL of Glo Lysis Buffer—GLB (Promega, Madison WI) equilibrated to room temperature is added to liver tissue. Liver tissues were homogenized with the FastPrep24 instrument (MP Biomedicals) at 2×6.0 m/s for 15 seconds. Homogenate was incubated at room temperature for 5 minutes prior to a 1:4 dilution in GLB and assessed using SteadyGlo Luciferase assay system (Promega). Specifically, 50 μL of diluted tissue homogenate was reacted with 50 μL of SteadyGlo substrate, shaken for 10 seconds followed by 5 minute incubation and then quantitated using a CentroXS^3 LB 960 luminometer (Berthold Technologies, Germany). The amount of protein assayed was determined by using the BCA protein assay kit (Pierce, Rockford IL). Relative luminescence units (RLU) were then normalized to total μg protein assayed. To convert RLU to ng luciferase a standard curve was generated with QuantiLum Recombinant Luciferase (Promega).
The FLuc mRNA (L-6107 or L-7202) from Trilink Biotechnologies will express a luciferase protein, originally isolated from the firefly, Photimus pyralis. FLuc is commonly used in mammalian cell culture to measure both gene expression and cell viability. It emits bioluminescence in the presence of the substrate, luciferin. This capped and poly-adenylated mRNA was fully substituted with respect to uridine and/or cytidine nucleosides.
Representative compounds of the disclosure shown in Table 2 were formulated using the following molar ratio: 50% cationic lipid/10% distearoylphosphatidylcholine (DSPC)/38.5% Cholesterol/1.5% PEG lipid 2-[2-(ω-methoxy(polyethyleneglycol2000)ethoxy]-N,N-ditetradecylacetamide) or 47.5% cationic lipid/10% DSPC/40.7% Cholesterol/1.8% PEG lipid. Relative activity was determined by measuring luciferase expression in the liver 4 hours following administration via tail vein injection as described in Example 1. The activity was compared at a dose of 1.0 or 0.5 or 0.3 mg mRNA/kg and expressed as ng luciferase/g liver measured 4 hours after administration, as described in Example 1. Compound numbers in Table 2 refer to the compound numbers of Table 1. […]

The structures appear in SMILES notation. Where two headings read alike, the source gives them in different places.

Regarding `CCCCCCCCCCN(C(=O)C(F)CCCN(C)C)C(CCCCCCCCC(=O)OCC(CCCC)CCCCCC)CCCCCCCCC(=O)OCC(CCCC)CCCCCC` (centres unmarked) [Compound I-24, BIS(2-BUTYLOCTYL) 10-(N-DECYL-5-(DIMETHYLAMINO)-2-FLUOROPENTANAMIDO)NONADECANEDIOATE], in series [1] (probe 2-(p-toluidino)-6-napthalene sulfonic acid (TNS), 1 µM final, read-out: pKa), the pKa was determined as 6.04. The “Liver Luc (ng luc/g liver), determined at 0.3 mg/kg” value in series [2] amounted to 9411 ± 1733 ng luc/g liver.
Regarding `CCCCC(CC)COC(=O)CCCCCCCCC(CCCCCCCCC(=O)OCC(CC)CCC)N(CCCCN(C)C)C(=O)C(F)(F)C(F)(F)C(F)(F)C(F)(F)C(F)(F)C(F)(F)C(F)(F)F` (centres unmarked) [I-5 analogue, reference compound], the pKa in series [1] is recorded as 6.86. In series [2], the “Liver Luc (ng luc/g liver), determined at 0.3 mg/kg” value was 666 ± 589 ng luc/g liver and the “Liver Luc (ng luc/g liver), determined at 1.0 mg/kg” value amounted to 1338 ± 798 ng luc/g liver.
The matching figures for `CCCCCCCC(=O)N(C(=O)CCCCN(C)C)C(CCCCCC(=O)OCC(CCCC)CCCCC)CCCCCC(=O)OCC(CCCC)CCCCCC` (centres unmarked) [I-11 analogue, reference compound]: 7.04, 1626 ± 472 ng luc/g liver and 8102 ± 4319 ng luc/g liver.

As a reminder, the pKa is the pH at which an ionisable group is half protonated.
